Patent publication US20260297127A1, “REVERSIBLE SURFACTANT AND MULTIFUNCTIONAL DRUG DELIVERY SYSTEMS BASED THEREON” (Yissum Research Development Company of the Hebrew …, priority 2023, published 2026)
Values belong to the molecule of their own block, whether it stands above or below them. Peptide text beside a SMILES is read from it.

Tests used:
[1] = in words; cited from earlier work
[2] = tested on: cervical adenocarcinoma HeLa cells; assay: MTT cytotoxicity assay, 72 h incubation; format: cell-based; conditions: Homo sapiens, PTX on its own, dissolved in DMSO, read-out: half maximal inhibitory concentration (IC50)
Procedure: The ability to use these emulsions for drug delivery purposes was assessed using the 3-(4,5-dimethylthiazol-2-yl)-2,5-diphenyltetrazolium bromide (MTT) assay. The assay was conducted on cervical adenocarcinoma HeLa cells with the widely used drug paclitaxel (PTX). […] This poses significant disadvantages due to stability issues of the drug that can precipitate when diluted, causing therapeutic failures and possibly harming the patients. […] One way to overcome these complications is to administer the drug in an emulsion. An additional advantage of the system proposed herein is that the disassembly of the emulsion droplets will release the metal ions of the complex in addition to the PTX. […]
The complete cell-culture medium was prepared by the addition of 10% fetal bovine serum (FBS), 1% L-glutamine, and 1% Penicillin-Streptomycin (all purchased from Sartorius) to Dulbecco's Modified Eagle's Medium (DMEM, Sigma Aldrich). […] Afterwards, cytotoxicity was measured by the previously reported MTT method. […] The medium was removed and replaced with isopropanol (200 μL), and upon complete dissolution of the formazan, the absorbance was measured at 550 nm on a Spark 10 M multimode microplate reader spectrophotometer (Tecan Group Ltd., Mannedorf, Switzerland). […]

[3] = Zn^2+ ions for PTX; metal ions for the others; cited from earlier work
[4] = Encapsulation efficiency (% EE) in castor oil emulsions and solubility in the oil phase; format: physicochemical; conditions: for % EE (encapsulation efficiency) in words: castor oil emulsion
Procedure: The % EE values may be altered to fit different drugs by changing the oil phase or by changing the emulsion preparation parameters such as the oil-water ratio.
The encapsulation efficiency (% EE) values were determined by comparing the amount of the free compound in the aqueous phase with the initial concentration. The compounds were dissolved in castor oil with 10% (v/v) ethanol. […] The % EE values were calculated using the formula: % EE=(Cinitial−C(aq.))/Cinitial×100%, where Cinitial is the concentration of the compound in the emulsion and Caq. is the concentration of the compound in the aqueous phase after the centrifugation. The measurements were performed in triplicates.

[5] = Emulsion formation and stability (mixing with non-aqueous phase, manual agitation); format: physicochemical; conditions: chloroform-water
Source text: We designed the peptide Trp-His-His-Trp (WHHW, SEQ ID NO 1), which contains a metal-binding dihistidine moiety surrounded by two hydrophobic amino acids. When an aqueous solution of the peptide and certain metal ions are mixed with a non-aqueous phase, an emulsion is formed (FIG. 1B). […] Depending on the ratio between the aqueous and non-aqueous phases, o/w or w/o emulsions can be formed (FIG. 1C). The peptide has weak inherent fluorescence, but its presence on the interface of the emulsion droplets was inferred by labeling it with fluorescein isothiocyanate (FITC) (FIG. 1D).
By increasing the pH again, the emulsion can be reassembled. With chloroform as the non-aqueous phase, the emulsion has a critical micelle concentration of ~0.2 mM and it is stable for at least 4 months at room temperature (FIG. 3A). Adding ethylenediaminetetraacetic acid (EDTA) to remove the metal ions visibly disassembled the emulsion after ~24 h (FIG. 3B).
The same peptide derivatives in the presence of Cu^2+ ions, were further mixed with chloroform and manually agitated to form emulsions (FIG. 8).
The emulsions were prepared by mixing a peptide solution with the metal ions to a final concentration of 1 mm each and adding NaOH to obtain pH=10. The desired non-aqueous phase was added to this solution at 50% (v/v) and the two phases were manually agitated to form the emulsions. […]

[6] = Self-assembly of the peptide observed experimentally; format: physicochemical
[7] = UV-vis titration / Benesi-Hildebrand plot / Job's plot of peptide with Cu^2+ ions; format: binding; conditions: read-out: stability constant (converted)
Procedure: FIG. 6. Benesi-Hildebrand plot. The stability constant derived from this plot was 6918.3±0.2 M^−1, similar to the known value for imidazole.
(FIG. 3A). […] A Job's plot was prepared as well with the peptide and Cu^2+ ions (FIG. 7B). In the samples with excess Cu^2+ ions (those above χ=0.5) the absorbance increased without an increase in the complex concentration. This may be because of the formation of Cu(OH)2 precipitates from the excess Cu^2+ ions due to the alkaline pH. To negate this effect, the absorbance values of solutions that contained the concentration of the excess Cu^2+ were subtracted from the original measurements. This yielded good linear fittings that indicate a 1:1 binding ratio.
For the UV-vis titration, a peptide solution (1.5 mm) was titrated with a CuCl2 solution (15 mM). The solutions were left for 5 min and the absorbance was measured using a UV-vis spectrophotometer (Shimadzu, UV-1650PC, Kyoto, Japan). For the Job's plot assay, peptide solutions with different mole fractions of Cu^2+ ions (up to 1 mm) were prepared at pH=9 and their absorbance values were measured.

[8] = histidine residues; cited from earlier work

SMILES: CC(=O)O[C@H]1C(=O)[C@@]2(C)[C@H]([C@H](OC(=O)c3ccccc3)[C@]3(O)C[C@H](OC(=O)[C@H](O)[C@@H](NC(=O)c4ccccc4)c4ccccc4)C(C)=C1C3(C)C)[C@]1(OC(C)=O)CO[C@@H]1C[C@@H]2O [Paclitaxel]
Solubility in water [1]: Insoluble
IC50 [2]: 0.014 ± 0.005 µM
anti-tumor efficacy in presence of metal ions [3]: enhanced

SMILES: O=C1OC2(c3ccc(O)cc3Oc3cc(O)ccc32)c2ccc(N=C=S)cc21 [FITC, fluorescein isothiocyanate]
Solubility in water [1]: Insoluble
solubility in castor oil [4]: low solubility
% EE (encapsulation efficiency) in words [4]: lower

emulsion stability compared with WHHW ([5]; 1 mM peptide and 1 mM Cu^2+): less stable
SMILES: N[C@@H](Cc1ccccc1)C(=O)N[C@@H](Cc1c[nH]cn1)C(=O)N[C@@H](Cc1c[nH]cn1)C(=O)N[C@@H](Cc1ccccc1)C(=O)O [FHHF, Phe-His-His-Phe] (H-FHHF-OH)

formation of emulsions with Cu^2+ ions ([5]; 1 mM peptide derivative and 1 mM Cu^2+): formed emulsions
self-assembled structure ([6]; 10 mM, water, 24 h): fibrous structures
Kd [7]: 145 µM
SMILES: N[C@@H](Cc1c[nH]c2ccccc12)C(=O)N[C@@H](Cc1c[nH]cn1)C(=O)N[C@@H](Cc1c[nH]cn1)C(=O)N[C@@H](Cc1c[nH]c2ccccc12)C(=O)O [WHHW, Trp-His-His-Trp] (H-WHHW-OH)
self-assembled structure with Cu^2+ ions ([6]; 5 mM peptide, 5 mM Cu^2+): spherical aggregates alongside the fibrous structures

SMILES: COc1cc(/C=C/C(=O)CC(=O)/C=C/c2ccc(O)c(OC)c2)ccc1O [curcumin]
anti-tumor efficacy in presence of metal ions [3]: promoted

SMILES: CCN(CC)C(=S)SSC(=S)N(CC)CC [Disulfiram]
anti-tumor efficacy in presence of metal ions [3]: promoted

SMILES: c1c[nH]cn1 [imidazole]
pKa of the imidazole's amine [8]: ~ 6

SMILES: CCN(CC)c1ccc2nc3c4ccccc4c(=O)cc-3oc2c1 [Nile red]
Solubility in water [1]: Insoluble

solubility in castor oil [4]: low solubility
% EE (encapsulation efficiency) in words [4]: lower
SMILES: Cc1ccc(C)c(N=Nc2cc(C)c(N=Nc3c(O)ccc4ccccc34)cc2C)c1 [Oil red O]
Solubility in water [1]: Insoluble
